Assay [1] relates to MCP-1-induced signaling in human monocytes (THP-1 cell line). The experiment in a line: MCP-1-induced signaling, western blot. Particulars: 20 min pretreatment, 50 ng/ml MCP1, THP-1. The class given is cell-based. As for the experimental part: THP-1 cells (10^6/ml) were pretreated for 20 min with VB-201 or VB-701 at the doses indicated in FIG. 4, or with solvent, followed by activation with 50 ng/ml MCP1, or were untreated (“Unt”). Cells were washed and resuspended in lysis buffer containing 1:100 dithiothreitol (DTT), phosphatase and protease inhibitors (Thermo Scientific). Samples were loaded onto a precast Criterion TGX gel (Bio-Rad, Hemel Hempstead, UK) and transferred onto nitrocellulose membrane. Blots were blocked with 5% milk or BSA in Tris buffered saline and Tween 20 (TBST) for 1 h, followed by incubation with primary and secondary antibodies. Membranes were developed using an ECL kit (Thermo Scientific). The following antibodies were used for immunoblotting:
Primary antibodies: p-ERK1/2 (Cat. No. M8159; 1:10000) was purchased from Sigma (Israel). p-AKT (Cat. No. 4060; 1:1000) was purchased from Cell Signaling Technology (Danvers, Mass.). αTubulin served as a loading control and was purchased from Sigma (Israel).
Secondary antibodies: HRP donkey anti-rabbit (1:5000) and HRP goat anti-mouse (1:3000) were from Jackson ImmunoResearch (West Grove, Pa., USA). HRP donkey anti-goat (1:5000) was from Santa Cruz Biotechnology.
For orientation: A western blot detects proteins with antibodies after separation by electrophoresis.

In assay [2] the test system is human monocytes (primary CD14+). Put plainly: Chemokine-induced cell migration trans-well assay. In kind it is cell-based. The settings on record: RANTES 100 ng/ml and MCP-1 50 ng/ml, 2-4 hours, FACS count. The protocol: Venous blood samples were obtained from healthy male donors in compliance with the Institutional Review Board at the Sheba Medical Center, Ramat Gan, Israel. PBMCs were isolated on Ficoll-Paque PLUS (GE Healthcare, Uppsala, Sweden) using 50 ml Leucosep tubes (Greiner Bio-One, Frickenhausen, Germany). Cells were washed in PBS (Kibbutz Beit Haemek, Israel) and incubated at 4° C. for 15 minutes in a buffer containing PBS and 0.5% bovine serum albumin (BSA) with human CD14 microbeads (Miltenyi Biotec, Bergisch Gladbach, Germany).
Cells (10^6/ml) were pretreated for 20 min with VB-201 or VB-701 at the doses indicated in FIG. 5, or with solvent (Sol).
To test for chemokine-induced cell migration, RANTES (100 ng/ml; Cat. No. 300-06, PeproTech, Israel) and MCP-1 (50 ng/ml; Cat. No. 300-04, PeproTech, Israel) were dissolved in RPMI-1640 medium supplemented with 0.5% fetal bovine serum (FBS) and placed at the lower chamber of QCM 24-well, […], migration assay plates (Corning-Costar, Corning, N.Y.). Cells (3×10^5) were seeded in the upper chamber and incubated for 2-4 hours. Subsequently, the number of cells which migrated to the lower compartment was determined by fluorescence-activated cell sorting (FACS).

In assay [3] the test system is RANTES-induced signaling in human monocytes (primary CD14+). The experiment in a line: RANTES-induced signaling, western blot. The settings on record: RANTES 100 ng/ml for 15 minutes. The class given is cell-based. As for the experimental part: Cells (10^6/ml) were pretreated for 20 min with VB-201 (1-hexadecyl-2-(4′-carboxy)butyl-glycero-3-phosphocholine or 1-hexadecyl-2-(4′-carboxybutyl)-glycerol-3-phosphocholine) or VB-701 at the doses indicated in FIG. 2, or with solvent (Sol), followed by 15 min activation with 100 ng/ml lipopolysaccharide (LPS) or were untreated (Unt). Cells were washed and resuspended in lysis buffer containing 1:100 dithiothreitol (DTT), phosphatase and protease inhibitors (Thermo Scientific). Samples were loaded onto a precast Criterion TGX gel (Bio-Rad, Hemel Hempstead, UK) and transferred onto nitrocellulose membrane. Blots were blocked with 5% milk or BSA in Tris buffered saline and Tween 20 (TBST) for 1 h, followed by incubation with primary and secondary antibodies. Membranes were developed using an ECL kit (Thermo Scientific). The following antibodies were used for immunoblotting:
Human monocytes were obtained, treated and analyzed by western blot as described in Example 9 and FIG. 7, except that cells were induced with RANTES (100 ng/ml; Cat. No. 300-06, PeproTech, Israel) for 15 minutes. […] Accordingly, VB-702 and VB-201 inhibit RANTES-induced signaling in human monocytes (primary CD14+).

Assay [4] relates to LPS (TLR4)-stimulated human monocytes (primary CD14+). Put plainly: IL-12/23p40 ELISA, LPS (TLR4)-stimulated monocytes. The class given is cell-based. The settings on record: 1 hour pretreatment, 24 hour 100 ng/ml LPS, ELISA of supernatant. As for the experimental part:
(§1) Human monocytes were obtained as described in Example 9 and FIG. 9A-9B. Human monocytes were seeded (10^6/ml) and pretreated for 1 hour with VB-201, VB-701 or VB-702, followed by 24 hour activation with 100 ng/ml LPS from Escherichia coli strain 055:B5 (Sigma, Israel) (FIG. 9A) or 300 ng/ml Pam3CSK4 (InvivoGen, San Diego, Calif., USA) (FIG. 9B) to induce cytokine production. IL-12/23p40 concentration in the supernatant was then measured by ELISA (R&D systems, Cat. No. DY1240). Cells activated with solvent (0.5% ethanol in PBS) were used as a control.

Assay [5] relates to Pam3CSK4 (TLR2)-stimulated human monocytes (primary CD14+). Put plainly: IL-12/23p40 ELISA, Pam3CSK4 (TLR2)-stimulated monocytes. The class given is cell-based. Particulars: 1 hour pretreatment, 24 hour 300 ng/ml Pam3CSK4, ELISA of supernatant. The protocol:
as §1
A general note: ELISA stands for enzyme-linked immunosorbent assay.

Assay [6] has as its system NASH-induced mice. Put plainly: NASH and liver fibrosis mouse model (STZ + HFD), liver histology. In kind it is in vivo. The protocol:
Neonatal male mice exposed to low-dose streptozotocin (STZ) develop liver steatosis with diabetes. Continuous high fat diet (HFD) increases lobular inflammation with foam cell-like macrophages, showing nonalcoholic steatohepatitis (NASH) pathology. NASH was induced in 40 male mice by a single subcutaneous injection of 200 μg per mouse of STZ two days after birth and feeding HFD [57 kcal % fat]) from four weeks of age. Vehicle, VB-703 (4 mg/kg), or telmisartan (10 mg/kg) as positive control, were administered once daily for three weeks, starting from six weeks of age. Mice were sacrificed at nine weeks of age.
Liver pathology was used to determine the effect of VB-703 on liver inflammation and fibrosis. Histology slides were stained with hematoxylin/eosin (H&E) to assess inflammation. The inflammation score was determined as follows:
Histology slides were stained with Sirius red to determine collagen content as a marker for the extent of fibrosis.

`CCCCCCCCCCCCCCCCOCC(COP(=O)([O-])OCC[N+](C)(C)C)OCCCCC(=O)O` (stereo not shown) [VB-201, 1-hexadecyl-2-(4′-carboxy)butyl-glycero-3-phosphocholine, reference compound]: the “formation of p-AKT and p-ERK induced by MCP1” value in assay [1] is “inhibit”. In addition, the “chemokine-induced migration of human monocytes” value in assay [2] is reported as “inhibit”. In addition, the “formation of p-ERK induced by RANTES” value in assay [3] is recorded as “inhibit”. For the same compound, the “IL-12p40 levels, LPS (TLR4)-stimulated” value in assay [4] was “inhibit”. Further, the “IL-12p40 levels, Pam3CSK4 (TLR2)-stimulated” value in assay [5] is “inhibit”.

`CCCCCCCCCCC(CCCCCCCC)COC[C@H](COP(=O)([O-])OCC[n+]1ccccc1)OCCCCC(=O)O` (stereo partly drawn) [VB-703, (R)-1-(2′-octyl)dodecyl-2-(4′-carboxy)butyl-sn-glycero-3-phosphoric acid pyridiniumethyl ester]: the steatosis result in assay [6] (VB-703 4 mg/kg once daily for three weeks) was “did not appear to significantly alter”. For the same compound, the “decrease of liver fibrosis compared to vehicle treated mice (Sirius red)” value in assay [6] (VB-703 4 mg/kg, telmisartan 10 mg/kg, once daily for three weeks) stood at 58%.

The values above are taken from patent US10464957B2, “Oxidized lipids and methods of use thereof” (Vascular Biogenics Ltd., priority 2014, dated 2019).
